Source: patent US10800760B2, “Trk inhibition” (NantBio, Inc., priority 2017, dated 2020)

Target: T1, TrkA(h) (Homo sapiens, UniProt P04629)
T1 construct: purchased Millipore (KinaseProfiler Service)
Test: KinaseProfiler (Millipore) radiometric kinase assay, TrkA(h)
Assay type: biochemical
Conditions: compound concentration 1 μM
Experimental: The KinaseProfiler™ Service Assay Protocols (Millipore) were used to test the kinase inhibiting activity of the novel compounds from this invention. To do this, the buffer composition was as follows: 20 mM MOPS, 1 mM EDTA, 0.01% Brij-35, 5% Glycerol, 0.1% β-mercaptoethanol, 1 mg/mL BSA. Test compounds were initially dissolved in DMSO at the desired concentration, then serially diluted into the kinase assay buffer. In a final reaction volume of 25 μL, TrkA(h) (5-10 mU) is incubated with 8 mM MOPS pH 7.0, 0.2 mM EDTA, 200 μM LRRASLG (Kemptide), 10 mM MgAcetate and [γ^33P-ATP]. The reaction was initiated by the addition of the MgATP mix. After incubation for 40 minutes at room temperature, the reaction was stopped by addition of 5 μL of a 3% phosphoric acid solution. 10 μL of the reaction was then spotted onto a P30 filtermat and washed three times for 5 minutes in 50 mM phosphoric acid and once in methanol prior to drying and scintillation counting. Wells containing substrate but no kinase and wells containing a phosphopeptide control were used to set 0% and 100% phosphorylation value, respectively.

T1 sequence (P04629 33-796): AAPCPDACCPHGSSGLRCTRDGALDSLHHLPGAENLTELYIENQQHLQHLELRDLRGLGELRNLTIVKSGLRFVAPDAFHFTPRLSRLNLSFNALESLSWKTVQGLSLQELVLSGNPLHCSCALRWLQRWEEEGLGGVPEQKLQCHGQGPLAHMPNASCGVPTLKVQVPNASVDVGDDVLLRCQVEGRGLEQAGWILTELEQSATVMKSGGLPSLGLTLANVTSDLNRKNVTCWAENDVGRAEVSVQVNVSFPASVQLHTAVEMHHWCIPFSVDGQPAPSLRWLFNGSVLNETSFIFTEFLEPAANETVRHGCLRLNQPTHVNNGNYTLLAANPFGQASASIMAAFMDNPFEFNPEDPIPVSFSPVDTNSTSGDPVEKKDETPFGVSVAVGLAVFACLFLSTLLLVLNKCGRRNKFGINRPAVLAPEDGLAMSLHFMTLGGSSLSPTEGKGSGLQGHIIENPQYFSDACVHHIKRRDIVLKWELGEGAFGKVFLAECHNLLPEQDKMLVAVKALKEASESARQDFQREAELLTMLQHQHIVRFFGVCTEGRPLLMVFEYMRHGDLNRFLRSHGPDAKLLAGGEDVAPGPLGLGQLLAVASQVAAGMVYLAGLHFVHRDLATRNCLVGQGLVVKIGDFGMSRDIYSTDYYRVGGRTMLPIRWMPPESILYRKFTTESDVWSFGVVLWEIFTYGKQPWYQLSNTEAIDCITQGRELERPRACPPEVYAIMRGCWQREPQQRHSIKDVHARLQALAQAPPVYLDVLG

Question: `CC(Nc1cc(Nc2cc(C3CC3)[nH]n2)ncn1)c1c(F)cccc1F` (single isomer, unassigned) [Example 30] was tested. Which inhibition at 1 µM did it give?
Answer: 100%

Question: How did the inhibition at 1 µM turn out when `C[C@H](Nc1cc(Nc2cc(C3CC3)[nH]n2)ncn1)c1ccc(F)cc1` [Example 23, (S)—N4-(5-cyclopropyl-1H-pyrazol-3-yl)-N6-(1-(4-fluorophenyl)ethyl)pyrimidine-4,6-diamine] was run?
Answer: 99%

Question: How did the inhibition at 1 µM turn out when `Cc1c(Nc2cc(C3CC3)[nH]n2)ncnc1N[C@@H](C)c1ccc(F)cc1` [Example 24] was run?
Answer: 31%

Question: For `COc1c(Nc2cc(C3CC3)[nH]n2)ncnc1N[C@@H](C)c1ccc(F)cc1` [Example 25, (S)—N4-(5-cyclopropyl-1H-pyrazol-3-yl)-N6-(1-(4-fluorophenyl)ethyl)-5-methoxypyrimidine-4,6-diamine], which inhibition at 1 µM is on record?
Answer: 0%

Question: Which inhibition at 1 µM does the source give for `C[C@H](Nc1ncnc(Nc2cc(C3CC3)[nH]n2)c1C#N)c1ccc(F)cc1` [Example 26] here?
Answer: 49%

Question: `C[C@H](Nc1ncnc(Nc2cc(C3CC3)[nH]n2)c1F)c1ccc(F)cc1` [Example 27] was tested. Which inhibition at 1 µM did it give?
Answer: 87%

Question: For `C[C@H](Nc1ncnc(Nc2cc(C3CC3)[nH]n2)c1Cl)c1ccc(F)cc1` [Example 28, (S)-5-chloro-N4-(5-cyclopropyl-1H-pyrazol-3-yl)-N6-(1-(4-fluorophenyl)ethyl)pyrimidine-4,6-diamine], which inhibition at 1 µM is on record?
Answer: 56%

Question: With `CN1CCN(c2ccc(CNc3ncnc(Nc4cc(C5CC5)[nH]n4)c3C#N)cc2)CC1` [Example 29] as the molecule, how does the inhibition at 1 µM read?
Answer: -5%

Question: For `CC(Nc1cc(Nc2cc(C3CC3)n(C(=O)OC(C)(C)C)n2)ncn1)c1c(F)cccc1F` (stereo not drawn) [Example 31], which inhibition at 1 µM is on record?
Answer: 99%

Question: How did the inhibition at 1 µM turn out when `CC(Nc1cc(Nc2cc(C3CC3)[nH]n2)ncn1)c1ccc(F)cc1F` (stereo not drawn) [Example 32, N4-(5-cyclopropyl-1H-pyrazol-3-yl)-N6-(1-(2,4-difluorophenyl)ethyl)pyrimidine-4,6-diamine] was run?
Answer: 104%

Question: How did the inhibition at 1 µM turn out when `C[C@@H](Nc1cc(Nc2cc(C3CC3)[nH]n2)ncn1)c1ccc(F)cc1F` [Example 33] was run?
Answer: 60%

Question: How did the inhibition at 1 µM turn out when `C[C@H](Nc1cc(Nc2cc(C3CC3)[nH]n2)ncn1)c1ccc(F)cc1F` [Example 34] was run?
Answer: 101%

Question: With `CC(Nc1cc(Nc2cc(C3CC3)[nH]n2)ncn1)c1cc(F)ccc1F` (stereo not drawn) [Example 35] as the molecule, how does the inhibition at 1 µM read?
Answer: 99%

Question: With `CC(Nc1cc(Nc2cc(C3CC3)[nH]n2)ncn1)c1ccc(F)cc1Cl` (stereo not drawn) [Example 36] as the molecule, how does the inhibition at 1 µM read?
Answer: 101%

Question: How did the inhibition at 1 µM turn out when `CC(Nc1cc(Nc2cc(C3CC3)[nH]n2)ncn1)c1ccc(F)c(Cl)c1` (stereo not drawn) [Example 37] was run?
Answer: 97%

Question: `c1ccc(C(CN2CCOCC2)Nc2cc(Nc3cc(C4CC4)[nH]n3)ncn2)cc1` (stereo not drawn) [Example 38] was tested. Which inhibition at 1 µM did it give?
Answer: 71%

Question: With `CN1CCN(CC(Nc2cc(Nc3cc(C4CC4)[nH]n3)ncn2)c2ccccc2)CC1` (stereo not drawn) [Example 39] as the molecule, how does the inhibition at 1 µM read?
Answer: 7%

Question: For `OCC(Nc1cc(Nc2cc(C3CC3)[nH]n2)ncn1)c1ccc(F)cc1` (stereo not drawn) [Example 40], which inhibition at 1 µM is on record?
Answer: 101%

Question: With `CC(c1cc(F)ccc1F)N(C)c1cc(Nc2cc(C3CC3)[nH]n2)ncn1` (stereo not drawn) [Example 42] as the molecule, how does the inhibition at 1 µM read?
Answer: 95%

Question: Which inhibition at 1 µM does the source give for `CC(Nc1cc(Nc2cc(C3CC3)[nH]n2)ncn1)c1ccc(F)cn1` (stereo not drawn) [Example 43, N4-(5-cyclopropyl-1H-pyrazol-3-yl)-N6-(1-(5-fluoropyridin-2-yl)ethyl)pyrimidine-4,6-diamine] here?
Answer: 95%

Question: Which “% Inhibition@ 1 μM (TrkA(h))” value does the source give for `CC(Nc1cc(Nc2cc(C3CC3)[nH]n2)ncn1)c1ccc(F)cn1` (stereo not drawn) [Example 44, N4-(5-cyclopropyl-1H-pyrazol-3-yl)-N6-(1-(5-fluoropyridin-2-yl)ethyl)pyrimidine-4,6-diamine] here?
Answer: 98%

Question: How did the “% Inhibition@ 1 μM (TrkA(h))” value turn out when `CC(Nc1cc(Nc2cc(C3CC3)[nH]n2)ncn1)c1ccc(F)cn1` (stereo not drawn) [Example 45, N4-(5-cyclopropyl-1H-pyrazol-3-yl)-N6-(1-(5-fluoropyridin-2-yl)ethyl)pyrimidine-4,6-diamine] was run?
Answer: 100%

Question: How did the “% Inhibition@ 1 μM (TrkA(h))” value turn out when `CC(Nc1cc(Nc2cc(C3CC3)[nH]n2)ncn1)c1ccc(F)cn1` (stereo not drawn) [Example 46, N4-(5-cyclopropyl-1H-pyrazol-3-yl)-N6-(1-(5-fluoropyridin-2-yl)ethyl)pyrimidine-4,6-diamine] was run?
Answer: 98%

Question: For `CC(Nc1cc(Nc2cc(C3CC3)n(C)n2)ncn1)c1ccc(F)cc1F` (stereo not drawn) [Example 47], which inhibition at 1 µM is on record?
Answer: 25%

Question: How did the inhibition at 1 µM turn out when `CCn1nc(Nc2cc(NC(C)c3ccc(F)cc3F)ncn2)cc1C1CC1` (stereo not drawn) [Example 48] was run?
Answer: 10%

Question: With `CC(Nc1cc(Nc2ccn(C3CCOCC3)n2)ncn1)c1ccc(F)cc1F` (stereo not drawn) [Example 49] as the molecule, how does the inhibition at 1 µM read?
Answer: 5%

Question: How did the inhibition at 1 µM turn out when `Cc1cc(Nc2cc(NC(C)c3ccc(F)cc3F)ncn2)n[nH]1` (stereo not drawn) [Example 50] was run?
Answer: 99%

Question: For `CCCc1cc(Nc2cc(NC(C)c3ccc(F)cc3F)ncn2)n[nH]1` (stereo not drawn) [Example 51], which inhibition at 1 µM is on record?
Answer: 100%

Question: With `CC(Nc1cc(Nc2cc(C3CC3)[nH]n2)ncn1)c1ccc(F)cn1` (stereo not drawn) [Example 52, N4-(5-cyclopropyl-1H-pyrazol-3-yl)-N6-(1-(5-fluoropyridin-2-yl)ethyl)pyrimidine-4,6-diamine] as the molecule, how does the “% Inhibition@ 1 μM (TrkA(h))” value read?
Answer: 101%

Question: For `C[C@H](Nc1cc(Nc2cc(C3CC3)[nH]n2)nc(N)n1)c1ccc(F)cc1F` [Example 53], which inhibition at 1 µM is on record?
Answer: 100%

Question: How did the inhibition at 1 µM turn out when `C[C@H](Nc1cc(Nc2cc(C3CC3)[nH]n2)ncn1)c1ccc(F)cc1Cl` [Example 54] was run?
Answer: 100%

Question: `COCC(Nc1cc(Nc2cc(C3CC3)[nH]n2)ncn1)c1ccccc1` (stereo not drawn) [Example 55] was tested. Which inhibition at 1 µM did it give?
Answer: 85%

Question: Which inhibition at 1 µM does the source give for `CN(C)CC(Nc1cc(Nc2cc(C3CC3)[nH]n2)ncn1)c1ccccc1` (stereo not drawn) [Example 56] here?
Answer: 67%

Question: With `CC(Nc1cc(Nc2cc(C3CC3)[nH]n2)ncn1)c1ccc(F)cn1` (stereo not drawn) [Example 57, N4-(5-cyclopropyl-1H-pyrazol-3-yl)-N6-(1-(5-fluoropyridin-2-yl)ethyl)pyrimidine-4,6-diamine] as the molecule, how does the “% Inhibition@ 1 μM (TrkA(h))” value read?
Answer: 95%

Question: How did the inhibition at 1 µM turn out when `C[C@H](Nc1ncnc(Nc2cc(C3CC3)[nH]n2)n1)c1ccc(F)cc1F` [Example 58] was run?
Answer: 100%

Question: `C[C@H](Nc1ncnc(Nc2cc(C3CC3)[nH]n2)n1)c1ccc(F)cc1Cl` [Example 59] was tested. Which inhibition at 1 µM did it give?
Answer: 100%
